Experimental data from PubChem BioAssay AID210 (DTP/NCI, 2004).
Values joined by “and” are separate entries in the source; they are usually repeats but may differ in a detail not shown here. Equal entries are not always repeated. Inconclusive results and toxic doses are left out.

Test system: CD2F1 mice, ip Colon 26 adenocarcinoma, median survival T/C
Test: NCI In Vivo Anticancer Drug Screen. Data for tumor model Colon 26 Adenocarcinoma (intraperitoneal) in CD2F1 (CDF1) mice
Conditions: endpoint: median survival time, higher = longer survival
Method: The antitumor activity of compounds was measured in mice bearing transplantable tumors. Survival or tumor size were measured and the results are expressed as the measurement made in the treated group (T) divided by the measurement made in the vehicle treated control group (C). The tumor model used in this assay is Colon 26 Adenocarcinoma (intraperitoneal) in CD2F1 (CDF1) mice

[1] = dose: 40.0 mg/kg/injection, schedule: Q04DX003 (ip), vehicle: Klucel (hydroxypropylcellulose) (HPC)
[2] = dose: 80.0 mg/kg/injection, schedule: Q04DX003 (ip), vehicle: Klucel (hydroxypropylcellulose) (HPC)
[3] = dose: 160.0 mg/kg/injection, schedule: Q04DX003 (ip), vehicle: Klucel (hydroxypropylcellulose) (HPC)
[4] = dose: 50.0 mg/kg/injection, schedule: Q04DX003 (ip), vehicle: Klucel (hydroxypropylcellulose) (HPC)
[5] = dose: 100.0 mg/kg/injection, schedule: Q04DX003 (ip), vehicle: Klucel (hydroxypropylcellulose) (HPC)

O=NN(CCCl)C(=O)NC1CCC(=O)NC1=O (stereo not given)
T/C (dose: 2.8 mg/kg/injection, schedule: Q04DX003 (ip), vehicle: saline with Tween-80): 243 % of control
T/C (dose: 5.1 mg/kg/injection, schedule: Q07DX002 (oral), vehicle: saline with Tween-80): 179 % of control
T/C (dose: 5.1 mg/kg/injection, schedule: Q07DX003 (oral), vehicle: saline with Tween-80): 224 % of control
T/C (dose: 5.1 mg/kg/injection, schedule: Q07DX004 (oral), vehicle: saline with Tween-80): 215 % of control
T/C (dose: 5.2 mg/kg/injection, schedule: Q04DX003 (oral), vehicle: saline with Tween-80): 269 % of control
T/C (dose: 5.6 mg/kg/injection, schedule: Q04DX003 (ip), vehicle: saline with Tween-80): 269 % of control
T/C (dose: 7.7 mg/kg/injection, schedule: Q01DX001 (oral), vehicle: saline with Tween-80): 165 % of control
T/C (dose: 7.7 mg/kg/injection, schedule: Q07DX002 (oral), vehicle: saline with Tween-80): 204 % of control
T/C (dose: 7.7 mg/kg/injection, schedule: Q07DX003 (oral), vehicle: saline with Tween-80): 250 % of control
T/C (dose: 7.7 mg/kg/injection, schedule: Q07DX004 (oral), vehicle: saline with Tween-80): 265 % of control
T/C (dose: 8.5 mg/kg/injection, schedule: Q04DX003 (oral), vehicle: saline with Tween-80): 280 % of control
T/C (dose: 11.25 mg/kg/injection, schedule: Q04DX003 (ip), vehicle: saline with Tween-80): 269 % of control
T/C (dose: 11.5 mg/kg/injection, schedule: Q01DX001 (oral), vehicle: saline with Tween-80): 189 % of control
T/C (dose: 11.5 mg/kg/injection, schedule: Q07DX002 (oral), vehicle: saline with Tween-80): 251 % of control
T/C (dose: 11.5 mg/kg/injection, schedule: Q07DX003 (oral), vehicle: saline with Tween-80): 255 % of control
T/C (dose: 11.5 mg/kg/injection, schedule: Q07DX004 (oral), vehicle: saline with Tween-80): 369 % of control
T/C (dose: 13.6 mg/kg/injection, schedule: Q04DX003 (oral), vehicle: saline with Tween-80): 307 % of control
T/C (dose: 17.4 mg/kg/injection, schedule: Q01DX001 (oral), vehicle: saline with Tween-80): 189 % of control
T/C (dose: 17.4 mg/kg/injection, schedule: Q07DX002 (oral), vehicle: saline with Tween-80): 230 % of control
T/C (dose: 17.4 mg/kg/injection, schedule: Q07DX003 (oral), vehicle: saline with Tween-80): 369 % of control
T/C (dose: 17.4 mg/kg/injection, schedule: Q07DX004 (oral), vehicle: saline with Tween-80): 261 % of control
T/C (dose: 26.0 mg/kg/injection, schedule: Q01DX001 (oral), vehicle: saline with Tween-80): 210 % of control
T/C (dose: 26.0 mg/kg/injection, schedule: Q07DX002 (oral), vehicle: saline with Tween-80): 405 % of control
T/C (dose: 26.0 mg/kg/injection, schedule: Q07DX003 (oral), vehicle: saline with Tween-80): 184 % of control
T/C (dose: 39.0 mg/kg/injection, schedule: Q01DX001 (oral), vehicle: saline with Tween-80): 278 % of control

C1OC1CN1CCN(CC2CO2)CC1 (stereo not given)
T/C (dose: 3.12 mg/kg/injection, schedule: Q04DX003 (ip), vehicle: saline): 112 % of control and 98 % of control
T/C (dose: 6.25 mg/kg/injection, schedule: Q04DX003 (ip), vehicle: saline): 108 % of control and 120 % of control
T/C (dose: 25.0 mg/kg/injection, schedule: Q04DX003 (ip), vehicle: saline): 167 % of control
T/C (dose: 50.0 mg/kg/injection, schedule: Q04DX003 (ip), vehicle: saline): 175 % of control and 193 % of control

C=C(NC(=O)C(=C)NC(=O)c1csc(C2=NC3c4csc(n4)C4NC(=O)c5csc(n5)C(C(C)(O)C(C)O)NC(=O)C5CSC(=N5)/C(=C/C)NC(=O)C(C(C)O)NC(=O)c5csc(n5)C3(CC2)NC(=O)C(C)NC(=O)C(=C)NC(=O)C(C)NC(=O)C(C(C)CC)NC2C=Cc3c(C(C)O)cc(nc3C2O)C(=O)OC4C)n1)C(N)=O (stereo not given)
T/C (dose: 5.0 mg/kg/injection, schedule: Q04DX003 (ip), vehicle: Klucel (hydroxypropylcellulose) (HPC)): 120 % of control
T/C (dose: 10.0 mg/kg/injection, schedule: Q04DX003 (ip), vehicle: Klucel (hydroxypropylcellulose) (HPC)): 90 % of control
T/C (dose: 20.0 mg/kg/injection, schedule: Q04DX003 (ip), vehicle: Klucel (hydroxypropylcellulose) (HPC)): 100 % of control
T/C [1]: 110 % of control
T/C [2]: 102 % of control
T/C [3]: 92 % of control

Nc1ccc2nc3ccc(N)cc3[n+](-c3ccccc3)c2c1
T/C (dose: 4.0 mg/kg/injection, schedule: Q04DX003 (ip), vehicle: saline): 121 % of control
T/C (dose: 8.0 mg/kg/injection, schedule: Q04DX003 (ip), vehicle: saline): 120 % of control
T/C (dose: 16.0 mg/kg/injection, schedule: Q04DX003 (ip), vehicle: saline): 120 % of control

COc1ccc2c(c1O)-c1cccc3c1[C@@H](C2)N(CCCl)CC3
T/C (dose: 4.0 mg/kg/injection, schedule: Q04DX002 (ip), vehicle: Klucel (hydroxypropylcellulose) (HPC)): 107 % of control
T/C (dose: 8.0 mg/kg/injection, schedule: Q04DX002 (ip), vehicle: Klucel (hydroxypropylcellulose) (HPC)): 119 % of control
T/C (dose: 16.0 mg/kg/injection, schedule: Q04DX002 (ip), vehicle: Klucel (hydroxypropylcellulose) (HPC)): 108 % of control
T/C (dose: 32.0 mg/kg/injection, schedule: Q04DX002 (ip), vehicle: Klucel (hydroxypropylcellulose) (HPC)): 124 % of control

CC(C)NCC(O)COc1cccc2ccccc12 (stereo not given)
T/C (dose: 4.0 mg/kg/injection, schedule: Q04DX003 (ip), vehicle: Klucel (hydroxypropylcellulose) (HPC)): 109 % of control
T/C (dose: 8.0 mg/kg/injection, schedule: Q04DX003 (ip), vehicle: Klucel (hydroxypropylcellulose) (HPC)): 102 % of control
T/C (dose: 16.0 mg/kg/injection, schedule: Q04DX003 (ip), vehicle: Klucel (hydroxypropylcellulose) (HPC)): 107 % of control
T/C (dose: 32.0 mg/kg/injection, schedule: Q04DX003 (ip), vehicle: Klucel (hydroxypropylcellulose) (HPC)): 101 % of control
T/C (dose: 64.0 mg/kg/injection, schedule: Q04DX003 (ip), vehicle: Klucel (hydroxypropylcellulose) (HPC)): 107 % of control

OC(CBr)C(O)C(O)C(O)CBr (stereo not given)
T/C (dose: 25.0 mg/kg/injection, schedule: Q04DX003 (ip), vehicle: saline with Tween-80): 114 % of control
T/C [4]: 107 % of control
T/C (dose: 50.0 mg/kg/injection, schedule: Q04DX003 (ip), vehicle: saline with Tween-80): 102 % of control
T/C [5]: 117 % of control
T/C (dose: 100.0 mg/kg/injection, schedule: Q04DX003 (ip), vehicle: saline with Tween-80): 96 % of control
T/C (dose: 200.0 mg/kg/injection, schedule: Q04DX003 (ip), vehicle: saline with Tween-80): 102 % of control
T/C (dose: 400.0 mg/kg/injection, schedule: Q04DX003 (ip), vehicle: saline with Tween-80): 114 % of control
T/C (dose: 800.0 mg/kg/injection, schedule: Q04DX003 (ip), vehicle: Klucel (hydroxypropylcellulose) (HPC)): 163 % of control

Nc1n[nH]c(N)n1
T/C (dose: 40.0 mg/kg/injection, schedule: Q04DX003 (ip), vehicle: saline): 105 % of control
T/C (dose: 80.0 mg/kg/injection, schedule: Q04DX003 (ip), vehicle: saline): 96 % of control
T/C (dose: 100.0 mg/kg/injection, schedule: Q04DX003 (ip), vehicle: suspension in saline): 95 % of control
T/C (dose: 160.0 mg/kg/injection, schedule: Q04DX003 (ip), vehicle: saline): 112 % of control
T/C (dose: 200.0 mg/kg/injection, schedule: Q04DX003 (ip), vehicle: suspension in saline): 104 % of control
T/C (dose: 320.0 mg/kg/injection, schedule: Q04DX003 (ip), vehicle: saline): 106 % of control
T/C (dose: 400.0 mg/kg/injection, schedule: Q04DX003 (ip), vehicle: suspension in saline): 105 % of control
T/C (dose: 800.0 mg/kg/injection, schedule: Q04DX003 (ip), vehicle: suspension in saline): 108 % of control
T/C (dose: 1600.0 mg/kg/injection, schedule: Q04DX003 (ip), vehicle: suspension in saline): 100 % of control

C[C@]12CCC(=O)C=C1CC[C@@H]1[C@@H]2[C@@H](O)C[C@@]2(C)[C@H]1CC[C@]2(O)C(=O)CO
T/C [1]: 102 % of control
T/C [2]: 100 % of control
T/C [3]: 102 % of control
T/C (dose: 320.0 mg/kg/injection, schedule: Q04DX003 (ip), vehicle: Klucel (hydroxypropylcellulose) (HPC)): 102 % of control
T/C (dose: 640.0 mg/kg/injection, schedule: Q04DX003 (ip), vehicle: Klucel (hydroxypropylcellulose) (HPC)): 96 % of control

ClCCCCCCCCCCc1ccccc1
T/C (dose: 12.5 mg/kg/injection, schedule: Q04DX003 (ip), vehicle: Klucel (hydroxypropylcellulose) (HPC)): 102 % of control
T/C (dose: 25.0 mg/kg/injection, schedule: Q04DX003 (ip), vehicle: Klucel (hydroxypropylcellulose) (HPC)): 106 % of control
T/C [4]: 100 % of control
T/C [5]: 100 % of control
T/C (dose: 200.0 mg/kg/injection, schedule: Q04DX003 (ip), vehicle: Klucel (hydroxypropylcellulose) (HPC)): 106 % of control
T/C (dose: 400.0 mg/kg/injection, schedule: Q04DX003 (ip), vehicle: Klucel (hydroxypropylcellulose) (HPC)): 114 % of control
